The text below walks through data of PubChem BioAssay (NCI).

Among the test systems are ACHN renal; 786-0 renal; BT-549 breast; SNB-19 CNS; NCI/ADR-RES ovarian; IGROV1 ovarian; SR leukemia; DU-145 prostate; KM20L2 colon; M19-MEL melanoma.
Common to all, as to test: NCI-60 cell line screen, 48 h

“And” between values parts separate entries of the source, which are not always exact repeats. Equal entries are not always repeated.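 Each compound was tested at five concentrations against cells in 96-well plates for 48 hours. GI50 is the concentration that inhibits growth by half. The concentration for full growth arrest is given as TGI.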

Take `O=c1[nH]cnc2nc(-c3ccc(N(CCCl)CCCl)cc3)[nH]c12`: the GI50 in the experiment with ACHN renal was 2.58 µM; in the experiment with 786-0 renal it was 18.3 µM; in the experiment with BT-549 breast it was 84.8 µM; with SNB-19 CNS it was 19.3 µM; in the experiment on NCI/ADR-RES ovarian, 13.1 µM; in the experiment on IGROV1 ovarian, 26.9 µM. Moreover, the values for the GI50 in the experiment on SR leukemia and in the experiment on DU-145 prostate were greater than 100 µM and 15.9 µM, respectively. Also, the TGI is 33.5 µM with ACHN renal; 53.2 µM in the experiment with 786-0 renal; greater than 100 µM with BT-549 breast; greater than 100 µM in the experiment on SNB-19 CNS; greater than 100 µM in the experiment with NCI/ADR-RES ovarian; greater than 100 µM in the experiment with IGROV1 ovarian. The TGI with SR leukemia and in the experiment on DU-145 prostate was greater than 100 µM each time.

Turning to `N[C@H](C(=O)O)[C@@H](Cl)CC(=O)O`, the TGI in the experiment on ACHN renal, in the experiment on KM20L2 colon, in the experiment with 786-0 renal, with SNB-19 CNS, with M19-MEL melanoma and with IGROV1 ovarian was greater than 100 µM in each case.

On to `COC(=O)C1=C(c2cc(OC)c(OC)c(OC)c2)O[C@H](c2ccc3c(c2)OCO3)[C@H]1COC(C)=O`, for which the TGI with ACHN renal is 92.1 µM; with KM20L2 colon, greater than 100 µM; in the experiment with 786-0 renal, 78.4 µM; with M19-MEL melanoma it was greater than 100 µM; in the experiment on IGROV1 ovarian it was greater than 100 µM; in the experiment on SR leukemia, 72.6 µM.

Turning to `C/C=C/C(=O)[O-].N.N.N.N.N.[Co+3].[O-][Cl+3]([O-])([O-])[O-]`, the GI50 in the experiment on ACHN renal, with KM20L2 colon, with 786-0 renal, in the experiment on SNB-19 CNS and in the experiment on IGROV1 ovarian was greater than 100 µM each time. In addition, the TGI with ACHN renal, with KM20L2 colon, in the experiment with 786-0 renal, with SNB-19 CNS and with IGROV1 ovarian was greater than 100 µM throughout.

Turning to `O=[N+]([O-])c1ccc(NC(=S)N/N=C(\c2ccccc2)c2ccccn2)cc1`, the GI50 with ACHN renal was 1.34 µM; in the experiment on 786-0 renal it was 1.01 µM; with SR leukemia it was 0.0286 µM. Further, the TGI in the experiment on ACHN renal is 2.62 µM and 2.39 µM; with 786-0 renal, 2.17 µM and 2.49 µM; in the experiment on BT-549 breast it was 3.01 µM; in the experiment on SNB-19 CNS it was 3.12 µM and 2.97 µM; in the experiment on NCI/ADR-RES ovarian, 5.12 µM; with IGROV1 ovarian, 3.18 µM and 3.43 µM. The TGI is 2.98 µM and > 27.4 µM in the experiment with SR leukemia; 2.84 µM and 4.03 µM in the experiment on DU-145 prostate.

Turning to `c1ccc(-c2cnc3nc4ccccc4nc3n2)cc1`, the TGI in the experiment with ACHN renal is 15.4 µM; with 786-0 renal, greater than 100 µM; with BT-549 breast, 29 µM; with SNB-19 CNS, 32.7 µM; in the experiment on NCI/ADR-RES ovarian it was 39 µM; with IGROV1 ovarian, 17.5 µM. Moreover, the figures for the TGI in the experiment on SR leukemia and in the experiment with DU-145 prostate were 4.81 µM and 19.6 µM, respectively.

Regarding `C[C@H]1CC2=CC(=O)CC[C@]2(C)[C@H]2CC[C@@]3(C)[C@@H](CC[C@]3(C)O)[C@H]12`, the GI50 is 27.6 µM in the experiment with ACHN renal; 42.5 µM in the experiment with 786-0 renal; 24.7 µM in the experiment with BT-549 breast; 43.3 µM in the experiment on SNB-19 CNS; 28.7 µM in the experiment with NCI/ADR-RES ovarian; 27.3 µM in the experiment with IGROV1 ovarian. Further, the figures for the GI50 with SR leukemia and in the experiment on DU-145 prostate were 21.7 µM and 45.7 µM, respectively. For the same molecule, the TGI is greater than 100 µM with ACHN renal; greater than 100 µM with 786-0 renal; 71.9 µM in the experiment on BT-549 breast; greater than 100 µM in the experiment with SNB-19 CNS; greater than 86.5 µM in the experiment with NCI/ADR-RES ovarian; greater than 73.3 µM in the experiment on IGROV1 ovarian. Besides, the TGI was 55.5 µM in the experiment on SR leukemia and greater than 96.3 µM in the experiment with DU-145 prostate.

With `CC(=O)O[C@H](C[C@H](C(C)C)N(C)C(=O)[C@@H](NC(=O)[C@H]1CCCCN1C)C(C)(C)C)c1nc(C(=O)N[C@@H](Cc2ccccc2)C[C@H](C)C(=O)O)cs1`, the GI50 in the experiment on ACHN renal was less than 0.0025 µM; in the experiment on 786-0 renal it was less than 0.0025 µM; in the experiment on BT-549 breast, 0.00304 µM; in the experiment with SNB-19 CNS it was less than 0.0025 µM; in the experiment with NCI/ADR-RES ovarian, 0.00524 µM; in the experiment on IGROV1 ovarian it was 0.00294 µM. Also, the GI50 in the experiment on SR leukemia and in the experiment with DU-145 prostate was less than 0.0025 µM in each case. The TGI with ACHN renal is greater than 25 µM; with 786-0 renal, greater than 25 µM; with BT-549 breast, 0.0645 µM; in the experiment with SNB-19 CNS, greater than 25 µM; in the experiment on NCI/ADR-RES ovarian, greater than 25 µM; in the experiment with IGROV1 ovarian it was greater than 25 µM. Moreover, the TGI with SR leukemia was greater than 25 µM.

For `Cc1cc(O)c2c(c1)C(=O)C(c1c(C)cc3c(c1O)C(=O)C1OC1C3=O)=CC2=O` (stereo not given), the TGI is 2.36 µM in the experiment with ACHN renal; 4.16 µM in the experiment on 786-0 renal; 6.32 µM with BT-549 breast; greater than 50.7 µM in the experiment with SNB-19 CNS; greater than 23.1 µM with NCI/ADR-RES ovarian; 23.9 µM in the experiment on IGROV1 ovarian. Moreover, the figures for the TGI in the experiment with SR leukemia and in the experiment on DU-145 prostate were 40.1 µM and greater than 47.3 µM, respectively.

Turning to `CC(C)N(Cc1ccccc1)S(=O)(=O)c1n[nH]c(C(C)(C)C)n1`, the TGI in the experiment on ACHN renal, with 786-0 renal, with BT-549 breast, with SNB-19 CNS, in the experiment on NCI/ADR-RES ovarian and in the experiment with IGROV1 ovarian was greater than 100 µM each time. For the same molecule, the TGI in the experiment with SR leukemia and in the experiment on DU-145 prostate was greater than 100 µM each time.

Consider `CCC1(CC)C(=O)[N-]C(=O)[N-]C1=O.[Au+].[Au+].c1ccc([PH+](c2ccccc2)c2ccccc2)cc1.c1ccc([PH+](c2ccccc2)c2ccccc2)cc1`, for which the GI50 is 1.7 µM with ACHN renal, 0.911 µM in the experiment on 786-0 renal, 0.937 µM in the experiment with M19-MEL melanoma and 1.03 µM in the experiment with IGROV1 ovarian. Besides, the TGI in the experiment with ACHN renal came to 3.07 µM; in the experiment on 786-0 renal, 2.14 µM; in the experiment with M19-MEL melanoma it was 2.17 µM; in the experiment with IGROV1 ovarian, 2.3 µM.

With `O=C1C2=C(c3ccccc31)C(c1ccc(Cl)cc1)NC(=S)N2` (stereo not given), the TGI with ACHN renal is greater than 100 µM; in the experiment on KM20L2 colon, 37.4 µM; in the experiment on 786-0 renal, 34 µM; in the experiment on SNB-19 CNS, 96 µM; in the experiment on M19-MEL melanoma, 37.2 µM; in the experiment on IGROV1 ovarian, 42.6 µM.

`O=C1C2=C(c3ccccc31)C(c1ccc(F)cc1)N1C(=O)CCSC1=N2` (stereo not given): the TGI with ACHN renal, with KM20L2 colon, with 786-0 renal, with SNB-19 CNS, in the experiment with M19-MEL melanoma and in the experiment on IGROV1 ovarian was greater than 100 µM in each case.

With `Cc1ccc(C)c2c1CCc1cc3ccccc3nc1-2`, the TGI in the experiment with ACHN renal, in the experiment with KM20L2 colon, in the experiment with 786-0 renal, in the experiment on SNB-19 CNS, with M19-MEL melanoma and with IGROV1 ovarian was greater than 100 µM each time.
